This is an account of results in patent US20200061018A1, “METHODS AND COMPOSITIONS FOR TREATING PARKINSON'S DISEASE” (Cove Bio LLC, priority 2016, published 2020).

The subject of this test is patient with Parkinson's disease, positive for Malassezia infection. The experiment in a line: Example 3: Parkinson's patient positive for Malassezia infection given intravenous amphotericin B deoxycholate plus intranasal saline irrigation. It counts as in vivo, human. The conditions noted are these: i.v. 1.0 mg/kg/day for 3 weeks in combination with intranasal aqueous saline solution, follow-up 6 months after the course.

Experimental: A patient is clinically evaluated by a physician for deterioration of health because of their progression of symptoms of Parkinson's disease which include tremor, speech dysfunction, aberrant personality changes, abulia, and difficulties with mentation. Patient has no overt symptoms of Malassezia infection. […] Patient is treated with an intravenous administration of a commercially available amphotericin formulation of amphotericin B deoxycholate at 1.0 mg/kg/day in combination with a twice daily treatment regimen of intranasal aqueous saline solution. The solution comprises a mixture of 1 teaspoon of baking soda, 1.5 teaspoons of salt, and 1 quart sterilized distilled water. The solution is administered intranasally using a pulsating irrigation device. The pulsating irrigation device sends a gentle pulse of the solution into the nose via a nasal irrigation tip that can reach into and contact with the upper nasal passages. The amphotericin B treatment regimen is discontinued after 3 weeks. The total amount of amphotericin B administered to the patient over the course of treatment is about 1.8 grams. The nasal wash is continued to be administered to the patient indefinitely on a once daily basis. Routine follow-up is conducted by the physician 6 months after completion of the amphotericin B treatment course.

On to amphotericin B deoxycholate, for which the “caregiver report of symptoms” value is “improved mood, improved affect, decreased fatigue, decreased abulia, and improved mentation”. The “progression of Parkinson's disease measured with the MDS-UPDRS” value (person) is listed as “halted”.
